Values of other authors in patent US20050042240A1, “High viscosity antibacterials” (priority 2002, published 2005).

Details: chronic catheter lock context

CC(C)O [isopropyl alcohol]
daily dose above which toxic symptoms can arise: > 500 mg
